Tested on: T47D (PIK3CA H1047R) cells
Experiment: pS473 AKT assay with 2.5% FBS, T47D cells
Assay type: cell-based
Conditions: Homo sapiens, pSer473 AKT, DMEM with 2.5% FBS, 2 h treatment, read-out: T47D_IC50
Method in brief: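 T47D (PIK3CA H1047R) cells were switched to DMEM with 2.5% FBS and exposed to compounds for 2 h. After paraformaldehyde fixation, pSer473 AKT was detected by in-cell ELISA (rabbit primary, HRP anti-rabbit secondary, chemiluminescence); IC50 values were fitted from the concentration series.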

SMILES | IC50
Cc1cc(C(C)Nc2ccc(C)nc2-c2cnn(C3CC3)c2)c2c(c1)c(=O)n1c3c2cnn3CCC1 (stereo not shown) [Compound 321, 10-(1-((2-(1-cyclopropyl-1H-pyrazol-4-yl)-6-methylpyridin-3-yl)amino)ethyl)-8-methyl-4,5-dihydro-3H,6H-2,2a,5a-triazaaceanthrylen-6-one] | < 1000 nM
Cc1cc(C(C)Nc2ccc(Cl)nc2N2CCN3C(=O)OCC3C2)c2c(c1)c(=O)n1c3c2cnn3CCC1 (stereo not shown) [Compound 322, 7-(6-chloro-3-((1-(8-methyl-6-oxo-4,5-dihydro-3H,6H-2,2a,5a-triazaaceanthrylen-10-yl)ethyl)amino)pyridin-2-yl)hexahydro-3H-oxazolo[3,4-a]pyrazin-3-one] | < 1000 nM
Cc1cc(C(C)Nc2ccc(Cl)nc2-c2cnn3c2CN(C)CC3)c2c(c1)c(=O)n1c3c2cnn3CCC1 (stereo not shown) [Compound 323, 10-(1-((6-Chloro-2-(5-methyl-4,5,6,7-tetrahydropyrazolo[1,5-a]pyrazin-3-yl)pyridin-3-yl)amino)ethyl)-8-methyl-4,5-dihydro-3H,6H-2,2a,5a-triazaaceanthrylen-6-one] | < 1000 nM
Cc1cc(C(C)Nc2ccc(Cl)nc2-c2ccc(CN(C)C)nc2)c2c(c1)c(=O)n1c3c2cnn3CCC1 (stereo not shown) [Compound 324, 10-(1-((6-Chloro-6′-((dimethylamino)methyl)-[2,3′-bipyridin]-3-yl)amino)ethyl)-8-methyl-4,5-dihydro-3H,6H-2,2a,5a-triazaaceanthrylen-6-one] | < 1000 nM
Cc1cc(C(C)Nc2ccc(C)nc2-c2noc(=O)[nH]2)c2c(c1)c(=O)n1c3c2cnn3C(C)CC1 (stereo not shown) [Compound 325, 3-(3-((1-(3,8-Dimethyl-6-oxo-4,5-dihydro-3H,6H-2,2a,5a-triazaaceanthrylen-10-yl)ethyl)amino)-6-methylpyridin-2-yl)-1,2,4-oxadiazol-5(4H)-one] | < 1000 nM
Cc1cc(C(C)Nc2ccc(C)nc2-c2nnn(C)n2)c2c(c1)c(=O)n1c3c2cnn3CCC1 (stereo not shown) [Compound 326, 8-Methyl-10-(1-((6-methyl-2-(2-methyl-2H-tetrazol-5-yl)pyridin-3-yl)amino)ethyl)-4,5-dihydro-3H,6H-2,2a,5a-triazaaceanthrylen-6-one] | < 1000 nM
CCn1ncc2c3c(C(C)Nc4ccc(C)nc4-c4noc(=O)[nH]4)cc(C)cc3c(=O)n(C)c21 (stereo not shown) [Compound 327, 3-(3-((1-(3-Ethyl-4,7-dimethyl-5-oxo-4,5-dihydro-3H-pyrazolo[3,4-c]isoquinolin-9-yl)ethyl)amino)-6-methylpyridin-2-yl)-1,2,4-oxadiazol-5(4H)-one] | < 1000 nM
Cc1cc(C(CO)Nc2ccc(Cl)nc2-c2ncn(C)n2)c2c(c1)c(=O)n1c3c2cnn3CCC1 (stereo not shown) [Compound 328, 10-(1-((6-Chloro-2-(1-methyl-1H-1,2,4-triazol-3-yl)pyridin-3-yl)amino)-2-hydroxyethyl)-8-methyl-4,5-dihydro-3H,6H-2,2a,5a-triazaaceanthrylen-6-one] | < 1000 nM
Cc1cc(C(CO)Nc2ccc(Cl)nc2-c2cnn(C)c2)c2c(c1)c(=O)n1c3c2cnn3CCC1 (stereo not shown) [Compound 329, 10-(1-((6-chloro-2-(1-methyl-1H-pyrazol-4-yl)pyridin-3-yl)amino)-2-hydroxyethyl)-8-methyl-4,5-dihydro-3H,6H-2,2a,5a-triazaaceanthrylen-6-one] | < 1000 nM
Cc1cc(C(CO)Nc2ccc(Cl)nc2-c2cnn(C)c2C)c2c(c1)c(=O)n1c3c2cnn3CCC1 (stereo not shown) [Compound 330, 10-(1-((6-chloro-2-(1,5-dimethyl-1H-pyrazol-4-yl)pyridin-3-yl)amino)-2-hydroxyethyl)-8-methyl-4,5-dihydro-3H,6H-2,2a,5a-triazaaceanthrylen-6-one] | < 1000 nM
Cc1cc(C(CO)Nc2ccc(Cl)nc2-c2nnco2)c2c(c1)c(=O)n1c3c2cnn3CCC1 (stereo not shown) [Compound 331, 10-(1-((6-chloro-2-(1,3,4-oxadiazol-2-yl)pyridin-3-yl)amino)-2-hydroxyethyl)-8-methyl-4,5-dihydro-3H,6H-2,2a,5a-triazaaceanthrylen-6-one] | < 1000 nM
Cc1cc(C(CO)Nc2ccc(Cl)nc2-c2nnn(C)n2)c2c(c1)c(=O)n1c3c2cnn3CCC1 (stereo not shown) [Compound 332, 10-(1-((6-chloro-2-(2-methyl-2H-tetrazol-5-yl)pyridin-3-yl)amino)-2-hydroxyethyl)-8-methyl-4,5-dihydro-3H,6H-2,2a5a-triazaaceanthrylen-6-one] | < 1000 nM
Cc1cc(C(CO)Nc2ccc(Cl)nc2-c2ccc3c(c2)CN(C)C3=O)c2c(c1)c(=O)n1c3c2cnn3CCC1 (stereo not shown) [Compound 333, 10-(1-((6-chloro-2-(2-methyl-1-oxoisoindolin-5-yl)pyridin-3-yl)amino)-2-hydroxyethyl)-8-methyl-4,5-dihydro-3H,6H-2,2a,5a-triazaaceanthrylen-6-one] | < 1000 nM
CCn1ncc2c3c(C(CN4CCN(C)CC4)Nc4ccc(Cl)nc4-c4cnn(C)c4)cc(C)cc3c(=O)n(C)c21 (stereo not shown) [Compound 334, 9-(1-((6-Chloro-2-(1-methyl-1H-pyrazol-4-yl)pyridin-3-yl)amino)-2-(4-methylpiperazin-1-yl)ethyl)-3-ethyl-4,7-dimethyl-3,4-dihydro-5H-pyrazolo[3,4-c]isoquinolin-5-one] | < 1000 nM
Cc1cc(C(C)Nc2ccccc2C(=O)O)c2c(c1)c(=O)n(C)c1cncn21 (stereo not shown) [Compound I-4, 2-((1-(4,7-Dimethyl-5-oxo-4,5-dihydroimidazo[1,5-a]quinazolin-9-yl)ethyl)amino)benzoic acid] | < 1000 nM
CCc1ncn2c3c(C(C)Nc4ccccc4C(=O)O)cc(C)cc3c(=O)n(C)c12 (stereo not shown) [Compound I-5, 2-((1-(3-Ethyl-4,7-dimethyl-5-oxo-4,5-dihydroimidazo[1,5-a]quinazolin-9-yl)ethyl)amino)benzoic acid] | < 1000 nM
Cc1cc(C(C)Nc2ccccc2C(=O)O)c2c(c1)c(=O)n(C)c1c(-c3ccccn3)ncn21 (stereo not shown) [Compound I-6, 2-((1-(4,7-Dimethyl-5-oxo-3-(pyridin-2-yl)-4,5-dihydroimidazo[1,5-a]quinazolin-9-yl)ethyl)amino)benzoic acid] | < 1000 nM
Cc1cc(C(C)Nc2ccccc2C(=O)O)c2c(c1)c(=O)n(C)c1c(C)ncn21 (stereo not shown) [Compound I-7, 2-((1-(3,4,7-Trimethyl-5-oxo-4,5-dihydroimidazo[1,5-a]quinazolin-9-yl)ethyl)amino)benzoic acid] | < 1000 nM
Cc1cc(C(C)Nc2ccc(C)nc2C(=O)O)c2c(c1)c(=O)n(C)c1c(C)ncn21 (stereo not shown) [Compound I-8, 6-Methyl-3-((1-(3,4,7-trimethyl-5-oxo-4,5-dihydroimidazo[1,5-a]quinazolin-9-yl)ethyl)amino)picolinic acid] | < 1000 nM
CCc1ncn2c3c(C(C)Nc4ccccc4C(=O)O)cc(Cl)cc3c(=O)n(C)c12 (stereo not shown) [Compound I-9, 2-((1-(7-Chloro-3-ethyl-4-methyl-5-oxo-4,5-dihydroimidazo[1,5-a]quinazolin-9-yl)ethyl)amino)benzoic acid] | < 1000 nM
CC(Nc1ccccc1C(=O)O)c1cc(Cl)cc2c(=O)n(C)c3cncn3c12 (stereo not shown) [Compound I-10, 2-((1-(7-Chloro-4-methyl-5-oxo-4,5-dihydroimidazo[1,5-a]quinazolin-9-yl)ethyl)amino)benzoic acid] | < 1000 nM
Cc1ncn2c3c(C(C)Nc4ccccc4C(=O)O)cc(Cl)cc3c(=O)n(C)c12 (stereo not shown) [Compound I-11, 2-((1-(7-Chloro-3,4-dimethyl-5-oxo-4,5-dihydroimidazo[1,5-a]quinazolin-9-yl)ethyl)amino)benzoic acid] | < 1000 nM
